The record followed here is patent US20240270762A1, “PENICILLIN-BINDING PROTEIN INHIBITORS” (priority 2021, published 2024).

Test [1] addresses T1, PBP3 from Acinetobacter baumannii (ATCC 19606) (Acinetobacter baumannii, UniProt A0ABX6CK25).
T1 sequence (A0ABX6CK25 64-610): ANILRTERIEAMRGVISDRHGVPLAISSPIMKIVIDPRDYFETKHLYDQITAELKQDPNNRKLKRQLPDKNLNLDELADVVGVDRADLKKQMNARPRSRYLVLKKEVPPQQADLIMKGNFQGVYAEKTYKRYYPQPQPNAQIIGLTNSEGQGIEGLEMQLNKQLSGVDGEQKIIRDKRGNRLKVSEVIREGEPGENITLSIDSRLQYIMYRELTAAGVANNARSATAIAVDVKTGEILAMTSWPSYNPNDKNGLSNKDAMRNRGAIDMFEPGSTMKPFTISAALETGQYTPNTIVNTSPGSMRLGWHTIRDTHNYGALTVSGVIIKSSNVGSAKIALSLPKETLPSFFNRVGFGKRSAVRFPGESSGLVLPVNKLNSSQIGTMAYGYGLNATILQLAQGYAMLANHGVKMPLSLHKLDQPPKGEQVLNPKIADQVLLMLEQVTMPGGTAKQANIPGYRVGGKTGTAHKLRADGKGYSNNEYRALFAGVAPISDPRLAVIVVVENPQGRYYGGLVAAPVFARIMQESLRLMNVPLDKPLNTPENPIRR
As to the kind of experiment: Bocillin-FL fluorescence polarization competition binding, A. baumannii PBP3. The note with it: fluorescence polarization competition binding assay using Bocillin-FL; read-out: A. baumannii PBP3 Potency. From the text: (§1) To determine the ability of boronic acid-based test PBP inhibitors to bind Penicillin Binding Proteins (PBPs), Bocillin-FL (fluorescently-labeled penicillin V; ThermoFisher Scientific) was used in a fluorescence polarization (FP) competition binding assay to assess inhibitor binding to PBP3 from Escherichia coli (K-12), PBP3 from Pseudomonas aeruginosa (PAO1), PBP1a and PBP3 from Acinetobacter baumannii (ATCC 19606), and PBP2 from Neisseria gonorrhoeae (FA19). PBPs were cloned and purified as described previously (E. coli PBP3, King, D. T, et al., ACS Infectious Diseases 2015, 1, 175-184; P. aeruginosa PBP3, Han et. al., PNAS 2010, 107 (51), 22002-22007; A. baumannii PBPs, Penwell et. al., Antimicrob. Agents Chemother. 2015, 59 (3), 1680-1689; N. gonorrhoeae PBP2, Singh et. al., J. Biol. Chem. 2019, 294 (38), 14020-14032). To establish assay conditions for competition binding, enzyme titration/saturation binding experiments were initially performed. Bocillin-FL was prepared at 0.2 μM in a buffer comprised of 50 mM Hepes (pH 8.0), 300 mM NaCl and 10% (v/v) glycerol for reactions with E. coli, P. aeruginosa and N. gonorrhoeae PBPs, and 25 mM Tris (pH 8.0), 200 mM NaCl, 10% (v/v) glycerol and 0.005% (v/v) Tween 20 for reactions with A. baumannii PBPs. Saturation binding was performed by mixing 40 μl of PBP solutions ranging in concentrations from 0-24 μM with 40 μl of the 0.2 μM Bocillin-FL solution, in individual wells of a black 384-well microplate. FP was measured immediately upon mixing (Excitation, 490 nm; Emission, 520 nm; g-factor, 0.96), using a Cytation3 (BioTek) microplate reader and measured continuously for up to 120 minutes. The FP response stabilized after 15 minutes for P. aeruginosa and A. baumannii PBP3, 30 minutes for E. coli PBP3 and A. baumannii PBP1a, and less than 1 minute for N. gonorrhoeae PBP2. […] The competition binding assay (80 μl final volume) was validated using beta-lactams and PBPs at final concentrations of: 1.5 μM for E. coli PBP3; 0.75 μM for P. aeruginosa PBP3; 1 μM for A. baumannii PBP1a; 0.2 μM for A. baumannii PBP3; and 0.25 μM for N. gonorrhoeae PBP2. Bocillin-FL was at 0.1 μM (0.05 μM with A. baumannii PBP1a) and beta-lactam concentrations ranged from 0-1,000 μM. E. coli PBP3 was incubated with increasing concentrations of ampicillin in a black 384-well microplate (Corning) for 30 minutes. P. aeruginosa PBP3 was incubated for 15 minutes with aztreonam, whereas A. baumannii PBP1a and PBP3 were incubated for 15 minutes with meropenem, and then Bocillin-FL was added followed immediately by the FP measurement for up to 60 minutes. […] The beta-lactam potency was reported as the concentration of beta-lactam required to reduce the amount of PBP bound-Bocillin-FL by 50% (EC50). […] The EC50 of aztreonam was determined to be <0.5 μM for P. aeruginosa PBP3. […] Binding assays for boronic acid PBP inhibitors were performed in an identical fashion for the respective PBPs.

For a further test, the system named is P. aeruginosa ATCC 27853. Description: microbe, parasite or virus in culture. It is filed as cell-based. To be noted: Pseudomonas aeruginosa, ATCC27853, read-out: Minimum inhibitory concentration, P. aeruginosa ATCC 27853.
The next test concerns A. baumannii ATCC 17978. As to the kind of experiment: microbe, parasite or virus in culture. It is filed as cell-based. To be noted: Acinetobacter baumannii, ATCC17978, read-out: MIC, A. baumannii ATCC 17978.
In another test the test system is A. baumannii ATCC 19606. Description: microbe, parasite or virus in culture. It is filed as cell-based. To be noted: Acinetobacter baumannii, ATCC19606, read-out: MIC, A. baumannii ATCC 19606.
Another test deals with P. aeruginosa ATCC 35151. As to the kind of experiment: microbe, parasite or virus in culture. It is filed as cell-based. To be noted: Pseudomonas aeruginosa, ATCC35151, read-out: Minimum inhibitory concentration, P. aeruginosa ATCC 35151.
Test [2] has as its system P. aeruginosa (ΔmexAB-oprM). Description: Broth microdilution MIC in iron-depleted CAMHB (IDM). The note with it: Pseudomonas aeruginosa, read-out: Minimum inhibitory concentration, P. aeruginosa ΔmexAB-oprM. It is filed as cell-based. A general note: Broth dilution looks for growth in wells or tubes with falling amounts of substance.
In the next test the test system is P. aeruginosa CDC-0054. Description: microbe, parasite or virus in culture. It is filed as cell-based. The note with it: Pseudomonas aeruginosa, CDC0054, read-out: Minimum inhibitory concentration, P. aeruginosa CDC-0054.
Another test deals with P. aeruginosa CDC-0090. As to the kind of experiment: microbe, parasite or virus in culture. To be noted: Pseudomonas aeruginosa, CDC0090, read-out: Minimum inhibitory concentration, P. aeruginosa CDC-0090. It counts as cell-based.
In a further test the test system is P. aeruginosa CDC-0095. Description: microbe, parasite or virus in culture. It is filed as cell-based. The note with it: Pseudomonas aeruginosa, CDC0095, read-out: Minimum inhibitory concentration, P. aeruginosa CDC-0095.
The test system of another test is A. baumannii 1258916. As to the kind of experiment: microbe, parasite or virus in culture. It is filed as cell-based, Acinetobacter baumannii. To be noted: Acinetobacter baumannii, 1258916, read-out: MIC, A. baumannii 1258916.
The test system of another test is A. baumannii CDC-0033. Description: microbe, parasite or virus in culture. It is filed as cell-based. The note with it: Acinetobacter baumannii, CDC0033, read-out: MIC, A. baumannii CDC-0033.
The next test concerns A. baumannii CDC-0036. Description: microbe, parasite or virus in culture. It counts as cell-based. The note with it: Acinetobacter baumannii, CDC0036, read-out: MIC, A. baumannii CDC-0036.
For a further test, the system named is A. baumannii CDC-0045. As to the kind of experiment: microbe, parasite or virus in culture. It is filed as cell-based. The note with it: Acinetobacter baumannii, CDC0045, read-out: MIC, A. baumannii CDC-0045.
The subject of another test is A. baumannii CDC-0083. Description: microbe, parasite or virus in culture. It counts as cell-based. To be noted: Acinetobacter baumannii, CDC0083, read-out: MIC, A. baumannii CDC-0083.
For test [3], the system named is B. thailandensis ATCC 700388. As to the kind of experiment: microbe, parasite or virus in culture. It is filed as cell-based. To be noted: Burkholderia thailandensis, ATCC700388, read-out: Minimum inhibitory concentration (MIC), B. thailandensis ATCC 700388.
The test system of test [4] is B. humptydooensis ATCC BAA-2767. As to the kind of experiment: microbe, parasite or virus in culture. It counts as cell-based. To be noted: Burkholderia humptydooensis, ATCCBAA2767, read-out: Minimum inhibitory concentration (MIC), B. humptydooensis ATCC BAA-2767.
Another test concerns P. aeruginosa CDC-0110. As to the kind of experiment: microbe, parasite or virus in culture. It counts as cell-based. To be noted: Pseudomonas aeruginosa, CDC0110, read-out: Minimum inhibitory concentration, P. aeruginosa CDC-0110.
In test [5] the target is T2, PBP1a from Acinetobacter baumannii (ATCC 19606) (Acinetobacter baumannii, UniProt A0ABX6CK30).
T2 sequence (A0ABX6CK30 1-851): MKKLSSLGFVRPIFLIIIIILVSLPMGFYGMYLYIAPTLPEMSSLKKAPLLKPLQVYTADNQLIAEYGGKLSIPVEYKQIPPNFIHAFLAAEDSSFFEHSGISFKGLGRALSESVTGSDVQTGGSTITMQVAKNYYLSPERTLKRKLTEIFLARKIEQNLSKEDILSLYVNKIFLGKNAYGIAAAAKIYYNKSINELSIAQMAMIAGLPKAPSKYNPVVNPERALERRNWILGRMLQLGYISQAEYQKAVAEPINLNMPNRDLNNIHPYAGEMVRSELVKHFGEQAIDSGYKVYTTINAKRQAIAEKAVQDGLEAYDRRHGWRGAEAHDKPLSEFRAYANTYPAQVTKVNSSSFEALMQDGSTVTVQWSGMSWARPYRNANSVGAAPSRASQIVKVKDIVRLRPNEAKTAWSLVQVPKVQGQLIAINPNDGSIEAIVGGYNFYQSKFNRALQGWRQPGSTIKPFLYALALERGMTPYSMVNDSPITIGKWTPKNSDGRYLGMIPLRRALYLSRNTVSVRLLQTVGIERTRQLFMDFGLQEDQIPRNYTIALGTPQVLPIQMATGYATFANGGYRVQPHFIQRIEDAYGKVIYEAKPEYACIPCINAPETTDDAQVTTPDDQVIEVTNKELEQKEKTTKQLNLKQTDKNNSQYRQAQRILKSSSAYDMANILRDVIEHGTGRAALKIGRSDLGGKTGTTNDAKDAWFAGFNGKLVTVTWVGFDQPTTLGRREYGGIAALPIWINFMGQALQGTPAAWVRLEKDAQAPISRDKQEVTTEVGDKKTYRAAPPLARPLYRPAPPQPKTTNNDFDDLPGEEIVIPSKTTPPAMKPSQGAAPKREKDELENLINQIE
Description: Bocillin-FL fluorescence polarization competition binding, A. baumannii PBP1a.
Description: as §1

Structures are written as SMILES. Values after ≈ are worked out from the molar mass of the structure shown.

With `O=C(O)c1c(F)ccc2c1OB(O)[C@@H](NC(=O)[C@@H](NC(=O)N1CCN(Cc3ccc(O)c(O)c3Cl)C(=O)C1=O)c1ccc(P(=O)(O)O)cc1)C2` (single isomer, unassigned) [Example 161], the IC50 in [1] is < 10 µM. The MIC was 2 to 4 µg/mL (≈ 2.72 to 5.44 µM) with P. aeruginosa ATCC 27853; < 1 µg/mL in the test with A. baumannii ATCC 17978; < 1 µg/mL in the test with A. baumannii ATCC 19606; < 1 µg/mL with P. aeruginosa ATCC 35151; 2 to 4 µg/mL (≈ 2.72 to 5.44 µM) in test [2]; < 1 µg/mL in the test on P. aeruginosa CDC-0054. Further, the MIC was > 128 µg/mL in the test with P. aeruginosa CDC-0090; < 1 µg/mL in the test on P. aeruginosa CDC-0095; > 128 µg/mL in the test with A. baumannii 1258916; 8 to 16 µg/mL (≈ 10.9 to 21.8 µM) with A. baumannii CDC-0033; > 128 µg/mL with A. baumannii CDC-0036; > 128 µg/mL in the test with A. baumannii CDC-0045. Moreover, the MIC in the test with A. baumannii CDC-0083 is 8 to 16 µg/mL (≈ 10.9 to 21.8 µM); in [3] it was < 1 µg/mL; in test [4], < 1 µg/mL; in the test with P. aeruginosa CDC-0110 it was < 1 µg/mL.
As for `C[C@@H](O)[C@H]1C(=O)N2C(C(=O)O)=C(S[C@@H]3CN[C@H](C(=O)N(C)C)C3)[C@H](C)[C@H]12` [meropenem, reference compound], the EC50 in test [5] is < 0.5 µM.

The term EC50 denotes the concentration giving half of the maximal effect. Read a high EC50 as a need for much substance.
